Read-outs that look alike come from different tables or passages of the source.
Experiments:
ΔsltA CrzA:GFP = assay type: cell-based, Aspergillus fumigatus; conditions: 15 min
CrzA:GFP = assay type: cell-based, Aspergillus fumigatus; conditions: 15 min
[1] = system: A. fumigatus h2A::mRFP strain; experiment: h2A::mRFP fluorescence, apoptosis-like cell death marker; assay type: cell-based, Aspergillus fumigatus; conditions: H2O2 10 mM, COL 10 or 20 μM, CAS 0.03 or 0.2 μg/mL, or CAS with COL; 1 h
A. fumigatus conidia = experiment: Fungicidal activity: CFU on drug-free MM after 48 h with compound + CAS; assay type: cell-based, Aspergillus fumigatus; conditions: 0.2 μg/mL CAS, then CFU on compound-free medium, n = 3
[2] = system: A. fumigatus conidia in A549 cells; experiment: A549 human lung epithelial cells killing assay; assay type: cell-based, Aspergillus fumigatus
A. fumigatus = assay type: cell-based, Aspergillus fumigatus; conditions: 58 PKI at 20 µM alone or with COL 2.5 µM; 48 h, 37 °C
HepG2 liver cells = experiment: HepG2 cytotoxicity, Alamar blue; assay type: cell-based, human; conditions: COL 0, 20 and 40 µM + CAS 50 μg/mL; topotecan positive control; 48 h; n = 6
[3] = system: A. fumigatus mito::GFP germlings; assay type: cell-based, Aspergillus fumigatus
[4] = system: A. fumigatus (Af293) infection; assay type: in vivo, Caenorhabditis elegans
A. fumigatus ΔcalA = assay type: cell-based, Aspergillus fumigatus
A. fumigatus ΔsltA = assay type: cell-based, Aspergillus fumigatus
A. fumigatus ΔcrzA = assay type: cell-based, Aspergillus fumigatus
[5] = system: A. fumigatus wild-type mycelia; assay type: cell-based, Aspergillus fumigatus; conditions: n = 9
A. fumigatus ΔsltA ΔcrzA = assay type: cell-based, Aspergillus fumigatus
SltA = assay type: cell-based, Aspergillus fumigatus
[6] = system: A. fumigatus wild-type (p)agsA::mluc; assay type: cell-based, Aspergillus fumigatus; conditions: CAS 0.05 and 0.125 µg/mL; COL 50 and 80 µM; or combination; 16 h at 35 °C

[Ca+2].[Cl-].[Cl-] [CaCl2]
increase of CrzA:GFP localization to the nucleus (ΔsltA CrzA:GFP): about 4 fold | increase of CrzA:GFP translocation to the nucleus (CrzA:GFP): about 4 fold

OO [H2O2]
mRFP fluorescence of h2A::mRFP germlings [1]: complete loss of red fluorescence

COC(=O)C1=C(C)NC(C)=C(C(=O)OC(C)(C)CN(C)CCC(c2ccccc2)c2ccccc2)C1c1cccc([N+](=O)[O-])c1 (centres unmarked) [LER, lercanidipine]
lowest concentration with 100% fungicidal effect combined with CAS (A. fumigatus conidia): 3.95 µg/mL

C[C@@H](c1ncncc1F)[C@](O)(Cn1cncn1)c1ccc(F)cc1F [VOR, voriconazole]
A. fumigatus conidial killing ([2]; VOR 0.5 μg/mL, COL 20 and 40 μM, CAS 50 μg/mL, or COL + CAS, MOI 1:10, 24 h, n = 6): 85%

Cn1cc(C2=C(c3cn(C4CCN(Cc5ccccn5)CC4)c4ccccc34)C(=O)NC2=O)c2ccccc21 [enzaustarin, enzastaurin]
potentiation of COL activity (metabolic activity) (A. fumigatus): potentiated COL activity

CC[C@@]1(O)C(=O)OCc2c1cc1n(c2=O)Cc2cc3c(CN(C)C)c(O)ccc3nc2-1 [topotecan]
toxicity to HepG2 cells (cell viability, Alamar blue) (HepG2 liver cells): very high toxicity

caspofungin
germlings with mitochondrial fragmentation [3]: 35% | survival of infected animals over 3 days ([4]; 25 °C): significantly improved survival | growth of ΔcalA compared to wild-type (A. fumigatus ΔcalA): significantly better growth | growth of ΔsltA compared with the wild-type strain (A. fumigatus ΔsltA): comparable growth with the wild-type | growth of ΔcrzA compared to wild-type (A. fumigatus ΔcrzA): significantly better growth | reduction of total ATP compared with the control [5]: about 25% | mRFP fluorescence of h2A::mRFP germlings [1]: no differences in mRFP fluorescence

colistin
germlings with mitochondrial fragmentation [3]: 20% | A. fumigatus conidial killing, COL alone vs combination ([2]; COL 80 µM vs COL 80 µM + CAS 50 µg/mL): same level of conidial killing than the combination of COL 80 µM + CAS 50 µg/mL | sensitivity of ΔsltA ΔcrzA compared with ΔsltA (A. fumigatus ΔsltA ΔcrzA): as sensitive to COL and COL with CAS as ΔsltA alone | survival of infected animals over 3 days ([4]; in vivo): no impact on C. elegans survival | effect of Ca2+ addition on ΔsltA growth in the presence of COL (A. fumigatus ΔsltA): rescue ΔsltA growth | growth of ΔsltA compared with the wild-type strain (A. fumigatus ΔsltA): significantly more sensitive to COL | lowest concentration with 100% fungicidal effect combined with CAS (A. fumigatus conidia): 10 µM | increase of CrzA:GFP translocation to the nucleus (CrzA:GFP): about 4 fold | increased expression of SltA compared to non-exposure (SltA): about 4 fold | reduction of total ATP compared with the control [5]: about 25% | mRFP fluorescence of h2A::mRFP germlings [1]: no differences in mRFP fluorescence | luminescence readings compared with no compound controls [6]: about 2 fold

Reference: PMC12214536 (Nature Communications, 2025)
